Key:
MKK7 = target: T1, MKK7 (Homo sapiens, UniProt O14733, C202S/C260S/C280S); experiment: Real-time and endpoint fluorescence measurements with glycine-rich loop acrylodan-labelled MKK7 kinase domain; assay type: binding
T1 sequence (O14733 101-408 C202S/C260S/C280S): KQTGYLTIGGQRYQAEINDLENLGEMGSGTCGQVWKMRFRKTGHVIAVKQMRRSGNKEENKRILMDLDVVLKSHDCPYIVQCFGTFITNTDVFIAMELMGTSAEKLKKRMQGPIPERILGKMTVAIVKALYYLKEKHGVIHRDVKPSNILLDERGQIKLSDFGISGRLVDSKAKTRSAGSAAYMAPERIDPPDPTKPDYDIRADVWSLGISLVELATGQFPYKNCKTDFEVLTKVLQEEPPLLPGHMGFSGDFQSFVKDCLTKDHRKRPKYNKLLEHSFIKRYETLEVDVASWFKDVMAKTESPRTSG
Experimental: FIG. 8. Real-time and endpoint fluorescence measurements of a Type II and Type I ligands using glycine-rich loop labelled MKK7. […] Real-time kinetic measurements and detection of binding and dissociation of K252a.
Therefore, the Kd of a Type I inhibitor (K252a) to P-loop labelled MKK7 was measured. […] FIG. 8C highlights the real-time kinetic measurements and detection of binding and dissociation of K252a.

p38α = target: T2, p38α (Homo sapiens, UniProt Q16539, C119S/C162S/F327L/Y35C); experiment: Endpoint fluorescence binding measurements with acrylodan-labelled p38α (glycine-rich loop / P-loop labelled, Y35C); conditions: fluorescence response of acrylodan-labelled p38α
T2 construct: His-tag (N, cleaved yes); made in house; host or cells: E. coli BL21(DE3)
T2 sequence (Q16539 whole entry Y35C/C119S/C162S/F327L): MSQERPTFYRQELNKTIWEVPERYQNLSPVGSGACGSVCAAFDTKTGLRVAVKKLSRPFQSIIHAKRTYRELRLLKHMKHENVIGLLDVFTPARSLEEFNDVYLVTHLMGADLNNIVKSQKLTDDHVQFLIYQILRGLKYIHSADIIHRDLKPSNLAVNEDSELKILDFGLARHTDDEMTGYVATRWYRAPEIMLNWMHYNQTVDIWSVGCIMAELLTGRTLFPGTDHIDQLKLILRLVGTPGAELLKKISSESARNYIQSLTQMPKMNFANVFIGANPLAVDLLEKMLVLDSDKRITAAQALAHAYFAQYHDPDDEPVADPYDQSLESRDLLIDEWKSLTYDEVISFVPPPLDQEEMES
From the text: For acrylodan-labelled p38α, ratiometric fluorescence values (R=Iλ512/Iλ475) enabled reliable binding curves of detected compounds to be plotted, allowing for direct determination of the Kd of ligand binding. It should be noted that binding modes of detected molecules can initially be assessed in HTS formats by measuring plates from primary and/or secondary screens at different time points. Compounds that change the maximum ratiometric signal or Kd over time are likely to be Type II/III inhibitors. Alternatively, kinetics of the association (kon) and dissociation (koff) of selected compounds can be determined using cuvettes. To determine kon, a mini stir bar was placed in the bottom of each cuvette to ensure rapid mixing as inhibitor was delivered through the injection port located above the cuvette. […] Nearly instantaneous binding kinetics (<5 s) are characteristic of Type I inhibitors, while slower kinetics (>10 s) indicate the slower binding of Type II or Type III inhibitors to the DFG-out conformation. Following binding, koff was determined by adding a 10-fold excess of unlabelled kinase to shift the binding equilibrium away from the labelled kinase. Addition of excess unlabelled kinase causes the inhibitor to redistribute and dissociate from acrylodan-labelled p38α, resulting in a recovery of the fluorescence signal.

## CNC(=O)c1cc(Oc2ccc(NC(=O)Nc3ccc(Cl)c(C(F)(F)F)c3)cc2)ccn1 [sorafenib]
MKK7; negative controls, up to 10 μM
  detection of ligand binding by P-loop labelled MKK7: not detected up to 10 uM

## COC(=O)[C@@]1(O)C[C@H]2O[C@]1(C)n1c3ccccc3c3c4c(c5c6ccccc6n2c5c31)C(=O)NC4 [K252a]
MKK7
  Kd: 38 nM
MKK7; real-time measurements, P-loop labelled MKK7
  kinetics of binding and dissociation: fast

## NC(=O)c1c(OCc2c(F)cc(Br)cc2F)nsc1NC(=O)NCCCCN1CCCC1 [CP547632]
p38α
  detection of ligand binding by the P-loop labelled p38α assay: detected

Source: US20120107836A1, “DEVELOPMENT OF FLUORESCENTLY P-LOOP LABELLED KINASES FOR SCREENING OF INHIBITORS” (priority 2009, published 2012)
